According to patent US20220347085A1, “REPELLENT COMPOSITION AND USES” (Université Bourgogne, priority 2019, published 2022):

Experiments:
Type in all cases: in vivo
Drosophila suzukii [1] = assay: Evaluation of the copulation of Drosophila suzukii; settings: 10 min observation
Procedure: 2. Evaluation of the Copulation From the films recorded for studying the courtship behavior of Drosophila suzukii, a percentage of the number of pairs copulating during the 10 minutes of observation was calculated on the basis of the composition in which the filter paper was soaked. A statistical evaluation was carried out, and different tests were performed. In particular, a Kruskal-Wallis test followed by a post-hoc Dunn's Multiple Comparison Test were carried out (GraphPad, Prism6) in order to quantify the influence, on the number of copulating individuals, of the composition in which the paper is soaked and which involves a release of volatile compounds and an odor perceived.

Drosophila melanogaster = assay: Test of the reversible effect (waking from anesthesia), Drosophila melanogaster; settings: after 10 minutes at 2%, then placed in empty device
Procedure: Test of the Reversible Effect.
The devices used were those described for the study of the anesthesia such as described in example 2 above. The application conditions for the propanoic acid or the butyric acid were similar to those of the anesthesia test described in example 2 above. The flies were brought into the presence of 2% propanoic acid or 2% butyric acid for 10 minutes. At the end of 10 minutes of observation of the anesthesia (example 2 above), the flies were removed from the device and placed into another device which was identical but “empty”, i.e. without solvent or odor (odor=2% propanoic acid in the solvent or 2% butyric acid in the solvent, respectively). For each empty device, the total number of flies introduced and observed were 20 males and 30 females previously exposed to 2% propanoic acid and removed from this anesthetizing environment, and 6 males and 7 females previously exposed to 2% butyric acid and removed from this anesthetizing environment.
The flies were considered as woken from the anesthesia when they got back up on their legs and moved in the device.
The time required for waking the flies following their anesthesia was then measured.

Drosophila suzukii [2] = assay: Courtship of male Drosophila suzukii towards females, olfactory exposure; settings: compared with solvent alone, 10 min observation
Procedure: Drosophilae (Drosophila melanogaster) aged from 3 to 9 days are used for the courtship tests according to the method described above.
Naive males were isolated in tubes, individually, upon emerging from their puparium.
The females were selected to be virgin and were stored in tubes of 10 individuals. These tubes were placed in an inclined manner in incubators, for which a temperature of 25° C. was kept constant. A 12 hour-12 hour day/night cycle was applied. The courtship tests were carried out in the morning, between 1 and 3 hours after the start of the day cycle.
At the time of the test, a 6 mm disk of filter paper (Whatman, filter paper 42) was deposited per alveolus of the device for studying the courtship behavior. Each alveolus was cylindrical, transparent and closed, and of a volume of 1.52 or 0.9 cm^3. FIG. 16 is a schematic representation of an alveolus of the device used.
The paper was then soaked in 10 μl of a composition of 0.1%, 0.5% or 1% propionic acid, or 0.1%, 0.5% or 1% butyric acid, or a mixture comprising 0.1% propionic acid and 0.1% butyric acid, 0.25% propionic acid and 0.25% butyric acid or 0.5% propionic acid and 0.5% butyric acid. A gauze (netting) makes it possible to physically isolate the drosophilae from the odor. 6 pairs (one per alveolus) were observed independently. Each pair was made up of one male and one intact female, each originating from the tubes mentioned above.
The behavior was filmed for 10 minutes, under white light, using a Sony HDR-XR550 camera. Each film was recorded and then analyzed. For each concentration of the compositions used, the number of pairs of flies was, respectively, 33, 39, 27, 38, 33, 27, 12, 6 and 12.
A negative control was carried out comprising only the solvent, i.e. paraffin oil, in order to verify the absence of an effect of the solvent on the flies.
A courtship percentage was calculated, and represents the time during which the male courts the female during the 10 minutes of observation (recording). The courtship of the Drosophila suzukii is decomposed into recognizable stereotypical events, and described precisely in scientific literature (Revadi S et al., Insects 2015 [4]). Statistical tests, i.e. a Kruskal-Wallis test followed by a post-hoc Dunn's Multiple Comparison Test, were carried out (GraphFad, Prism6) in order to evaluate the influence, on the behavior, of the composition in which the paper is soaked; this involving a release of volatile compounds and an odor perceived by the drosophilae.

Drosophila suzukii [3] = assay: Anesthesia test, Drosophila suzukii; settings: 2% in paraffin oil
Procedure: The devices used were similar to the devices for studying the courtship (example 1 above), except for the volume of the space into which the files were introduced, which was 45.24 or 22.62 cm^3. 9 discs of filter paper (Whatman, filter paper 42), each soaked in 10 μl of a composition comprising butyric acid and/or propionic acid and/or a derivative of propionic acid diluted in paraffin oil were deposited in the device. The different compositions used comprised, respectively, 2% propionic acid or 2% butyric acid or 5% ethyl propanoate or 10% ethyl propanoate or 30% ethyl propanoate. For each composition, the number of flies was, respectively, 30 and 24 males, 30 and 11 females for Drosophila melanogaster, and 24, 16 and 4 males, 28, 26, 6, 5 and 4 females for Drosophila suzukii. In order to avoid any contact of the flies with the soaked disks of paper, a gauze (netting) was arranged above said papers. The drosophilae could move freely on said gauze. The quantity of compound, butyric acid or propionic acid, or of ethyl propanoate (odor) volatilized in the behavior chamber was equivalent to that of the device used for the courtship. Likewise, the flies were never in direct contact with the composition (no taste perception), only with the volatile particles (olfactory perception). The flies tested were introduced simultaneously, by group, into the enclosure. Their behavior was filed for 10 minutes, and a time required for leading to anesthesia was calculated over this period, depending on the concentration of butyric acid or propionic acid or ethyl propanoate used. The flies were considered anesthetized when they stopped moving and fell on their side.

Compound	reduction of the proportion of copulation (Drosophila suzukii [1]; 0.1% in solvent) [%]	proportion of copulation (Drosophila suzukii [1]; 0.5% in solvent)	proportion of copulation (Drosophila suzukii [1]; 1% in solvent)	time required to wake up fully from the anesthesia (Drosophila melanogaster; females) [min]	time required to wake up fully from the anesthesia (Drosophila melanogaster; males) [min]	proportion of courtship of males towards females (Drosophila suzukii [2]; 0.5% (v/v) in paraffin oil)	proportion of courtship of males towards females (Drosophila suzukii [2]; 1% (v/v) in paraffin oil)	time elapsed leading to anesthesia (Drosophila suzukii [3]; female flies (FIG. 17))	time elapsed leading to anesthesia (Drosophila suzukii [3]; male flies and female flies)	reduction of the proportion of copulation (Drosophila suzukii [1]; 0.5% in solvent) [%]
CCC(=O)O [propionic acid]	58	zero	zero	9	23	significantly reduced	significantly reduced	approximately 4 minutes	approximately 4 minutes	
CCCC(=O)O [butyric acid]	70.55	3.03%	zero	4.5	6	significantly reduced	significantly reduced	approximately 5 minutes	approximately 5 minutes	83.03
